Conditions: pH 7.4

| logD | Structure (SMILES) |
| --- | --- |
| 3.79 | CC(C)CC(O)C(CC1CCCCC1)NC(=O)C(Cn1ccnc1)NC(=O)C(CC(=O)N1CCOCC1)Cc1ccccc1 (stereo not given) |
| 4.27 | CC(C)CC(O)C(CC1CCCCC1)NC(=O)C(Cc1cscn1)NC(=O)C(CC(=O)N1CCOCC1)Cc1ccccc1 (stereo not given) |
| 3.71 | CC(C)CC(O)C(CC1CCCCC1)NC(=O)C(Cc1cn(C)cn1)NC(=O)C(CC(=O)N1CCOCC1)Cc1ccccc1 (stereo not given) |
| 3.51 | CC(C)CC(O)C(CC1CCCCC1)NC(=O)C(Cc1c[nH]cn1)NC(=O)C(CC(=O)N1CCOCC1)Cc1ccccc1 (stereo not given) |

The next lines start with the compound.

| Structure (SMILES) | logD |
| --- | --- |
| COc1ccc(CC(CC(=O)N2CCN(C)CC2)C(=O)NC(Cc2cscn2)C(=O)NC(CC2CCCCC2)C(O)C(O)CC(C)C)cc1 (stereo not given) | 3.38 |
| CC(C)CC(O)C(O)C(CC1CCCCC1)NC(=O)C(Cc1cscn1)NC(=O)C(CC(=O)CN1CCCOCC1)Cc1ccccc1 (stereo not given) | 3.91 |
| CC(C)CC(O)C(CC1CCCCC1)NC(=O)C(CN=[N+]=[N-])NC(=O)C(CC(=O)N1CCCOCC1)Cc1ccccc1 (stereo not given) | 4.1 |
| CC(C)CC(O)C(O)C(CC1CCCCC1)NC(=O)C(NC(=O)C(CC(=O)N1CCN(C)CC1)Cc1ccccc1)c1cc[nH]n1 (stereo not given) | 4.02 |
| CC(C)CC(O)C(O)C(CC1CCCCC1)NC(=O)C(NC(=O)C(CC(=O)N1CCN(C)CC1)Cc1ccccc1)c1c[nH]cn1 (stereo not given) | 1.66 |
| CC(C)CC(O)C(CC1CCCCC1)NC(=O)C(Cc1cc[nH]n1)NC(=O)C(CC(=O)N1CCCOCC1)Cc1ccccc1 (stereo not given) | 4.01 |

Source: the SangsterLogP compilation
